The results in this text go back to the supplement of paper PMC11208160.
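Note: IS621 bridge recombinase in Escherichia coli cells against a fixed T5 target plasmid.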

The nature of this data set: recombinant UMI read abundance after kanamycin selection (control-corrected) (log10(CPM+1)); higher = more efficient recombination; extreme values may be limits of the assay; sequences stand for … in AGTGCAGAGAAAATCGGCCAGTTTTCTCTGCCTGCAGTCCGCATGCCGTGGGACCCCTTGGGTTCTAACCTGTTGCCTAGATTTATGCAGCGGACTGCCTTTCTCCCAAAGTGATAAACCGG…AGGTTGGTTTCACT; site = the 11-nt donor. A digest of the protocol:
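Reported values are log10(CPM+1) from a pooled Escherichia coli screen of donor and donor-binding-loop pairs for the IS621 bridge recombinase. Selection used IPTG (0.07 mM) plus kanamycin, against unselected plating, each in two replicates. Recombinant UMIs were amplified across the donor–target junction, sequenced, converted to CPM, averaged over replicates and scaled by control-derived factors.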
For the sequence “GGTCCAACATGGACCGGTTTTCCCGGTAATCCGTATTTGGA (site GGTCCAACTTT)”, the “recombinant UMI read abundance (log10)” value is 0.00506.
In the case of “GGTCCAACATGGACCGGTTTTCCCGGTAATCCGTATTTGTC (site GGTCCAACTAA)” it was 0.015; in that of “GGTCCAACATGGACCGGTTTTCCCGGTAATCCGTATTTGTC (site GGTCCAACTCA)”, 0.00327; in that of “GGTCCAACATGGACCGGTTTTCCCGGTAATCCGTATTTGTC (site GGTCCAACTGA)”, 0.
In the case of “GGTCCAACATGGACCGGTTTTCCCGGTAATCCGTATTTGTC (site GGTCCAACTTA)” it was 0.035; in that of “GGTCCACCATGGACCGGTTTTCCCGGTAATCCGTATTTGTA (site GGTCCAACTTA)”, 0.0242.
In the case of “GGTCCACCATGGACCGGTTTTCCCGGTAATCCGTATTTGTA (site GGTCCACCTTA)” it was 0.0126; in that of “GGTCCACCATGGACCGGTTTTCCCGGTAATCCGTATTTGTA (site GGTCCAGCTTA)”, 0.0357; in that of “GGTCCACCATGGACCGGTTTTCCCGGTAATCCGTATTTGTA (site GGTCCATCTTA)”, 0.0355.
In the case of “GGTCCAGCATGGACCGGTTTTCCCGGTAATCCGTATTTGAA (site GGTCCAGCTTT)”, the “recombinant UMI read abundance (log10)” value amounted to 0.307.
Consider “GGTCCAGCATGGACCGGTTTTCCCGGTAATCCGTATTTGTA (site GGTCCAACTTA)”, for which the “recombinant UMI read abundance (log10)” value was determined as 0.
In the case of “GGTCCAGCATGGACCGGTTTTCCCGGTAATCCGTATTTGTA (site GGTCCACCTTA)” it was 0.00451; in that of “GGTCCAGCATGGACCGGTTTTCCCGGTAATCCGTATTTGTA (site GGTCCAGCTTA)”, 1.56; in that of “GGTCCAGCATGGACCGGTTTTCCCGGTAATCCGTATTTGTA (site GGTCCATCTTA)”, 0.0161.
In the case of “GGTCCGTCATGGACCGGTTTTCCCGGTAATCCGTATTTGTT (site GGTACGTCTAA)” it was 0.00692; in that of “GGTCCGTCATGGACCGGTTTTCCCGGTAATCCGTATTTGTT (site GGTCCGTCTAA)”, 0.00423; in that of “GGTCCGTCATGGACCGGTTTTCCCGGTAATCCGTATTTGTT (site GGTGCGTCTAA)”, 0.0122.
As to “GGTCCGTCATGGACCGGTTTTCCCGGTAATCCGTATTTGTT (site GGTTCGTCTAA)”, the “recombinant UMI read abundance (log10)” value was 0.0141.
In the case of “GGTCGAACATGGACCGGTTTTCCCGGTAATCCGTATTTGTA (site GGTCAAACTTA)” it was 0.0946.
In the case of “GGTCGAACATGGACCGGTTTTCCCGGTAATCCGTATTTGTA (site GGTCCAACTTA)” it was 0.00781; in that of “GGTCGAACATGGACCGGTTTTCCCGGTAATCCGTATTTGTA (site GGTCGAACTTA)”, 0.761; in that of “GGTCGAACATGGACCGGTTTTCCCGGTAATCCGTATTTGTA (site GGTCTAACTTA)”, 0.00734.
In the case of “GGTGACCCATGGACCGGTTTTCCCGGTAATCCGTATTTGCA (site GGTGACCCTTG)” it was 0.706; in that of “GGTGCAGCATGGACCGGTTTTCCCGGTAATCCGTATTTGGA (site GGTGCAGCTTC)”, 0.0152.
Take “GGTGCCACATGGACCGGTTTTCCCGGTAATCCGTATTTGGT (site GGTGCCACTAC)”: the “recombinant UMI read abundance (log10)” value is 0.406.
In the case of “GGTGCGACATGGACCGGTTTTCCCGGTAATCCGTATTTGTT (site GGTGCGACTAA)” it was 0.345; in that of “GGTGCTACATGGACCGGTTTTCCCGGTAATCCGTATTTGGA (site GGTGCTACTTC)”, 0.449; in that of “GGTGGTCCATGGACCGGTTTTCCCGGTAATCCGTATTTGCC (site GGTGGTCCTGG)”, 0.
In the case of “GGTGTCCCATGGACCGGTTTTCCCGGTAATCCGTATTTGAA (site GGTGTCCCTTT)” it was 0.0114.
